Measured values taken from patent publication US20150112425A1, “DELIVERY OF HIGHLY LIPOPHILIC AGENTS VIA MEDICAL DEVICES” (Abbott Laboratories, priority 2005, published 2015).

How the values were obtained:
[1] = Shake-flask aqueous solubility study of DES drugs (FIG. 20)
[2] = Pig model, tissue and blood concentrations of zotarolimus eluted from ZoMaxx stents (FIG. 25); assay type: in vivo
[3] = Transfer coefficient (P divided by S) of DES drugs (FIG. 21); assay type: physicochemical; details: P divided by equilibrium aqueous solubility S (μg/ml)
[4] = Shake-flask octanol/water partition coefficient study of DES drugs (FIG. 20); assay type: physicochemical
Protocol: “Solubility” is based on a standard measure used in medicinal chemistry. The octanol-water partition coefficient (P) is the ratio of distribution of a compound in a mixture of 1-octanol and H2O. Log P is the base 10 logarithm of the partition coefficient.
In the measurement of the partition coefficient (octanol/water), preliminary studies were conducted to determine the optimum drug concentration for each test, and the appropriate time for establishing the partition equilibrium. All experiments were carried out by two different analysts and on multiple drug lots.

[5] = representative summary; cited from earlier work

Structure (SMILES): CO[C@H]1C[C@@H]2CC[C@@H](C)[C@@](O)(O2)C(=O)C(=O)N2CCCC[C@H]2C(=O)O[C@H]([C@H](C)C[C@@H]2CC[C@H](n3cnnn3)[C@H](OC)C2)CC(=O)[C@H](C)/C=C(\C)[C@@H](O)[C@@H](OC)C(=O)[C@H](C)C[C@H](C)/C=C/C=C/C=C/1C [Zotarolimus]
- Aqueous solubility, rank order ([1]; amorphous DES drugs, dexamethasone crystalline): increasing order: paclitaxel, zotarolimus, rapamycin, and dexamethasone (crystalline)
- Solubility in water compared with amorphous rapamycin ([1]; shake-flask): much less soluble in water than amorphous rapamycin
- Concentration in arterial tissue adjacent to stent placement ([2]; all periods out to 28 days): substantial concentrations
- Concentration in distal, unstented and subjacent myocardium and unstented and distal coronary arteries ([2]; throughout 28 days): therapeutically significant concentrations
- Transfer coefficient, rank order [3]: zotarolimus>>paclitaxel>>rapamycin>dexamethasone
- Lipophilicity rank among DES drugs tested [4]: the most lipophilic of all DES drugs tested
- LogP Values [5]: >4.5
